Key:
[1] = tested on: edema caused by intradermal injection of human recombinant IL-1β in the mouse ear; experiment: Ear edema by intradermal recombinant human IL-1β; type: in vivo, BALB/c mice; conditions: for effect of antagonist on anti-inflammatory effect of centrally administered α-MSH (1-13): antagonist administered intraperitoneally
Procedure: Female BALB/c mice (Simonsen Laboratories, Gilroy, Calif.), 7-8 weeks old, were housed at 23-25° C. in groups not exceeding five animals per cage [28 cm (L)×18 cm (W)×13 cm (H)]. Before the experiments they were acclimatized for not less than 1 week before experimentation to standard lighting and temperature conditions with food and water freely available.
Mice were anesthetized with 10% pentobarbital sodium solution (1 mg/mouse, 50 mg/ml, Nembutal sodium solution; Abbott Laboratories, North Chicago, Ill.). Baseline ear thickness measurements were taken with a spring-loaded micrometer (Swiss Precision Instruments, Los Angeles, Calif.). Ear thickness was expressed in cubic centimeters and was measured at least twice at each time point. The average thickness of unstimulated ears was […]. Inflammation was induced by intradermal injection of 20 μl of recombinant human IL-1β (1500 U; Genzyme, Cambridge, Mass.) in one ear of each mouse using a 28 gauge needle (Hiltz et al., 1992). Measures of ear thickness were repeated 4 and 6 hr later, while the mice were under sodium pentobarbital anesthesia. Edema was assessed by subtracting baseline measures from 4 and 6 hr readings for each animal. α-MSH (11-13) (1663.9 gm/mol; Peninsula Laboratories, Belmont, Calif.) or α-MSH (11-13) (383.48 gm/mol; Peninsula Laboratories) dissolved in saline was injected intracerebroventricularly (20 μl) using procedures described previously (Lipton et al., 1991; Lipton and Catania, 1993).
Several agents were administered at the time of ear challenge to pharmacologically block certain receptors: atropine (Sigma Chemical Co.; 150 μg i.p.), a muscarinic receptor blocker that acts on autonomic end-organ receptors, was chosen because of links between inflammation and modulation of pain and the finding that muscarinic antagonists increase pain threshold (Hartvig et al., 1989); phentolamine (Sigma; 150 μg i.p.) an agent that competes for occupancy of α-adrenergic receptors; propranolol (Sigma; 150 μg, i.p.; 30 μg, i.c.v.), a nonspecific competitive antagonist for β-adrenergic receptors.
(§1) Because of the size of the experiments and the requirement for several shipments of animals over time, several experiments were performed, each with complete treatment and control groups drawn from the same shipment of mice. Omnibus analysis of variance techniques (Dynastat, Washington, D.C.) were used to test overall differences among group means. Tukey's protected t test was used to compare individual means. Probability values of <0.05 were considered significant.

[2] = tested on: inflammation induced in the hind paw; experiment: Kappa carrageenan-induced hind paw inflammation, spinal cord intact or transected; type: in vivo, BALB/c mice; conditions: 2.5 mg/mouse IP, mice with spinal transection, 4.5 h after carrageenan
Procedure: Because surgical dissection of trigeminal structures that innervate the ear of the mouse is very difficult, tests to learn whether descending neural pathways are essential to the anti-inflammatory activity of centrally administered α-MSH peptides were performed in mice with inflammation induced in a hind paw. In these experiments, each animal was anesthetized with pentobarbital sodium solution as above. Baseline footpad thickness of both hind paws was measured with a spring-loaded micrometer (Swiss Precision Instruments, Los Angeles, Calif.). Paw thickness was expressed in units of 10^−3 cm; average thickness of unstimulated paws was 171.5×10^−3 cm across shipments of animals. Kappa carrageenan (Sigma) dissolved in saline (0.05%, 20 μl) was injected (28 gauge allergy test syringe) into one footpad, and saline (20 μl) was injected into the other. For the analyses, the increase in thickness of the control saline-injected paw of each animal was subtracted from that of the carrageenan-injected paw, to eliminate the influence of mechanical injury and volume of the injected fluid. To be certain that mice with severed spinal cords can react to anti-inflammatory agents, prednisolone (2.5 mg/mouse (IP injection)) was administered to 10 mice with spinal transection and inflammation induced by carrageenan. Treatment with the locally acting steroid reduced swelling up to 29% (average, relative to saline controls) at 4.5 h. after carrageenan.
However, a standardized crushing of lumbar vertebrae with a hemostat was effective in severing the cord; no deaths were caused by this treatment. […] The experiments were limited to 4.5 h to reduce problems of bowel and bladder dysfunction. Immediately after the 4.5 h measurements all mice were killed with an overdose of sodium pentobarbital.
as §1

C. albicans [3] = experiment: C. albicans colony forming units (candidacidal activity); type: cell-based; conditions: for relative potency in reducing C. albicans viability: 10^−4M melanocortin peptides; for reduction of C. albicans CFU at higher concentrations: up to 10^−4M
Procedure: C. albicans (1×10^6/ml in HBSS) was incubated in the presence or absence or α-MSH (1-13) or α-MSH (11-13) at concentrations in the range of 10^−15 M to 10^−6 M for 2 hours at 37° C. Cells were then washed in cold distilled water and diluted with HBSS to a concentration of 100 organisms/ml. One-ml aliquots were dispensed on blood agar plates and incubated for 48 hours at 37° C. Organism viability was estimated from the number of colonies formed. In subsequent experiments using familiar procedures we compared activity of α-MSH (4-10), α-MSH (6-13), α-MSH (11-13), ACTH (1-39), (18-39) and fluconazole, the latter an established antifungal agent. Melanocortin peptides and fluconazole were tested in concentrations of 10^−6 M to 10^−4 M. There were at least six replicates for each concentration of peptide.

[4] = tested on: inflammation induced in the ear by picryl chloride; experiment: Picryl chloride-induced ear swelling; type: in vivo, BALB/C mice; conditions: for overall effect on ear inflammation (ANOVA): 10-80 μg IP, 3 and 6 h
Procedure: Female BALB/C mice (Simmons Laboratories), 7 weeks old, were housed at 23-25° C. in groups of no more than 5 per cage [28 cm (L)×18 cm (W)×13 cm (H)]. They were allowed to acclimatize to standard lighting and temperature conditions for at least 1 week, with food and water available ad lib, before the experiment began. Five to ten animals were randomly assigned to each treatment group each test day, and all experiments were repeated at least twice to confirm reproducibility. To reduce error due to slight differences in responses to the irritant of animals from different shipments, tests of each agent were performed as separate experiments in which experimental and control animals were drawn from the same shipment.
In the experiments each animal was anesthetized with 1 mg of pentobarbital sodium solution (50 mg/kg, Nembutal, Abbott Laboratories, Abbott park, Ill.). Baseline ear thickness was measured for both ears with a spring-loaded micrometer (Swiss Precision Instruments, Los Angeles, Calif.). Ear thickness was expressed in units of 10^−3 cm; the average thickness of unstimulated ears was approximately 25-30×10^−3 cm. After baseline measurements were taken, one of six solutions was injected IP. Control animals received 0.2 ml of sterile saline, and experimental animals received Ac-α-MSH (11-13)-NH2, i.e., Ac-Lys-Pro-Val-NH2), Ac[D-Lys^11] α-MSH (11-13)-NH2, Ac[D-Pro^12] α-MSH (11-13)-NH2, Ac[D-Val^13] α-MSH (11-13)-NH2 or Ac-[D-Lys^11, D-Val^13] α-MSH (11-13)-NH2 in the same volume of saline. […] The doses of the tripeptides were 10 μg ([…]), 20 μg ([…]), 40 μg (1.04×10^−7 M), and 80 μg (2.08×10^−7 M). Immediately after saline or α-MSH injection, a micropipette was used to coat both sides of each ear with 10 μl (40 μl per mouse) of a 0.5% picryl chloride (Polysciences, Warrington, Pa.) solution in acetone.
Ear thickness was remeasured 3 and 6 h after picryl chloride application. Swelling was determined by subtracting baseline thickness from the measurements for each ear at 3 and 6 h. The differences for both ears were then averaged for the final analysis.
Repeated-measure ANOVA techniques were used to determine if there was an overall difference among group data for each peptide tested in separate experiments. In those cases in which the ANOVA yielded significant results, Dunnett's test was then used to compare the effects of peptide doses with control (saline) data for each of the two time periods, 3 and 6 h.

C. albicans [5] = experiment: Horse serum-induced germ tube formation of C. albicans; type: cell-based; conditions: 10^−6M, 60 minutes at 37° C.
Procedure: C. albicans from stationary phase cultures were washed twice with distilled water and suspended in HBSS to a final concentration of 2×10^6/ml. Hyphal growth was induced by addition of 10% inactivated horse serum (GIBCO/BRL, Great Britain) to yeast incubated for 45 minutes at 37° C. with continuous shaking. Horse serum was removed by washing cells twice with HBSS and incubation was continued for 60 minutes at 37° C. in the presence of α-MSH (1-13), α-MSH (6-13) or α-MSH (11-13) at a concentration of 10^−6M with continuous shaking. The percentage of filamentous cells was evaluated under a light microscope with the aid of hemocytometer. Experiments were run in triplicate and at least 200 cells were scored. Photomicrographs were taken with an MC100 camera attached to an Axioskop Zeiss microscope.

CC(C)NCC(O)COc1ccc(CC(N)=O)cc1 (centres unmarked) [atenolol]
effect of antagonist on anti-inflammatory effect of centrally administered α-MSH (1-13) [1]: little inhibition

CN1[C@@H]2CC[C@H]1C[C@@H](OC(=O)C(CO)c1ccccc1)C2 (some centres unmarked) [atropine]
effect of antagonist on anti-inflammatory effect of centrally administered α-MSH (1-13) [1]: did not alter

COc1ccc(OC)c(C(O)C(C)NC(C)(C)C)c1 (centres unmarked) [butoxamine]
effect of antagonist on anti-inflammatory effect of centrally administered α-MSH (1-13) [1]: significantly reduced

Cc1ccc(N(CC2=NCCN2)c2cccc(O)c2)cc1 [phentolamine]
effect of antagonist on anti-inflammatory effect of centrally administered α-MSH (1-13) [1]: did not alter

C[C@]12C=CC(=O)C=C1CC[C@@H]1[C@@H]2[C@@H](O)C[C@@]2(C)[C@H]1CC[C@]2(O)C(=O)CO [prednisolone, reference compound]
reduction of swelling relative to saline controls (average) [2]: up to 29%

CC(C)NCC(O)COc1cccc2ccccc12 (centres unmarked) [propranolol]
effect of antagonist on anti-inflammatory effect of centrally administered α-MSH (1-13) [1]: inhibited
effect of antagonist on anti-inflammatory influence of α-MSH (1-13) ([1]; antagonist injected centrally): little effect

ACTH (1-39): adrenocortitrophic hormone peptide (1-39) (SYSMEHFRWGKPVGKKRRPVKVYPNGAEDESAEAFPLEF; Corticotropin; UniProt P01189 138-176, looked up) [reference compound]
relative potency in reducing C. albicans viability (C. albicans [3]): did not reduce C. albicans viability
reduction of C. albicans CFU at higher concentrations (C. albicans [3]): ineffective

ACTH fragment (18-39): ACTH fragment (18-39) (RPVKVYPNGAEDESAEAFPLEF; Corticotropin; UniProt P01189 155-176, looked up, fragment) [reference compound]
relative potency in reducing C. albicans viability (C. albicans [3]): did not reduce C. albicans viability
reduction of C. albicans CFU at higher concentrations (C. albicans [3]): ineffective

Ac-[D-Lys^11, D-Val^13] α-MSH (11-13)-NH2 [Ac-[D-Lys^11, D-Val^13]α-MSH(11-13)-NH2]
% Inhibition of swelling ([4]; 10 μg IP, 3 h): 22%
% Inhibition of swelling ([4]; 10 μg IP, 6 h): 22%
% Inhibition of swelling ([4]; 20 μg IP, 3 h): 55%
% Inhibition of swelling ([4]; 20 μg IP, 6 h): 46%
% Inhibition of swelling ([4]; 40 μg IP, 3 h): 42%
% Inhibition of swelling ([4]; 40 μg IP, 6 h): 41%
% Inhibition of swelling ([4]; 80 μg IP, 3 h): 40%
% Inhibition of swelling ([4]; 80 μg IP, 6 h): 44%
overall effect on ear inflammation (ANOVA) [4]: significant overall reduction in inflammation

Ac-[D-Pro^12]α-MSH (11-13)-NH2
% Inhibition of swelling ([4]; 10 μg IP, 3 h): 4%
% Inhibition of swelling ([4]; 10 μg IP, 6 h): 8%
% Inhibition of swelling ([4]; 20 μg IP, 3 h): 11%
% Inhibition of swelling ([4]; 20 μg IP, 6 h): 5%
% Inhibition of swelling ([4]; 40 μg IP, 3 h): 10%
% Inhibition of swelling ([4]; 40 μg IP, 6 h): 8%
% Inhibition of swelling ([4]; 80 μg IP, 3 h): 8%
% Inhibition of swelling ([4]; 80 μg IP, 6 h): 6%
overall effect on ear inflammation (ANOVA) [4]: no significant effect on inflammation

Ac[D-Val^13] α-MSH (11-13)-NH2
% Inhibition of swelling ([4]; 10 μg IP, 3 h): 24%
% Inhibition of swelling ([4]; 10 μg IP, 6 h): 23%
% Inhibition of swelling ([4]; 20 μg IP, 3 h): 48%
% Inhibition of swelling ([4]; 20 μg IP, 6 h): 54%
% Inhibition of swelling ([4]; 40 μg IP, 3 h): 39%
% Inhibition of swelling ([4]; 40 μg IP, 6 h): 45%
% Inhibition of swelling ([4]; 80 μg IP, 3 h): 41%
% Inhibition of swelling ([4]; 80 μg IP, 6 h): 29%
overall effect on ear inflammation (ANOVA) [4]: marked inhibitory influence

HFRWGKPV (Designed polypeptide with anti-inflammatory, anti-bacterial, anti-fungal and antipyretic properties.) [α-MSH (6-13)]
relative potency in reducing C. albicans viability (C. albicans [3]): the most effective
reduction in the number of filamentous cells (inhibition of germination) (C. albicans [5]): approximately 50%

MEHFRWG [α-MSH (4-10)]
inhibition of CFU (C. albicans [3]; 10^−4M peptide as printed): approximately 50%

Reference: patent US6969590B2, “Use of a polypeptide for treatment of pruritus in animals” (Zengen, Inc., priority 2001, dated 2005)
